Measured values as given in PubChem BioAssay (NCI).
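Cells were grown in 96-well plates and exposed to each compound for 48 hours at five concentrations; endpoints were interpolated linearly between bracketing concentrations, or set to the highest concentration if not reached. Abbreviation: GI50, concentration required for 50% inhibition of growth. TGI: total growth inhibition.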

How the values were obtained:
Test in all cases: inhibition of tumour cell growth, NCI panel, 48 h
786-0 renal = tested on: 786-0 renal
A498 renal = tested on: A498 renal
A549 NSCLC = tested on: A549 NSCLC
ACHN renal = tested on: ACHN renal
BT-549 breast = tested on: BT-549 breast
CAKI-1 renal = tested on: CAKI-1 renal
CCRF-CEM leukemia = tested on: CCRF-CEM leukemia
COLO 205 colon = tested on: COLO 205 colon
DU-145 prostate = tested on: DU-145 prostate
EKVX NSCLC = tested on: EKVX NSCLC
HCC-2998 colon = tested on: HCC-2998 colon
HCT-116 colon = tested on: HCT-116 colon
HCT-15 colon = tested on: HCT-15 colon
HL-60(TB) leukemia = tested on: HL-60(TB) leukemia
HOP-62 NSCLC = tested on: HOP-62 NSCLC
HOP-92 NSCLC = tested on: HOP-92 NSCLC
HS 578T breast = tested on: HS 578T breast
HT29 colon = tested on: HT29 colon
IGROV1 ovarian = tested on: IGROV1 ovarian
K-562 leukemia = tested on: K-562 leukemia
KM12 colon = tested on: KM12 colon
LOX IMVI melanoma = tested on: LOX IMVI melanoma
M14 melanoma = tested on: M14 melanoma
MALME-3M melanoma = tested on: MALME-3M melanoma
MCF7 breast = tested on: MCF7 breast
MDA-MB-231 breast = tested on: MDA-MB-231 breast
MDA-MB-435 = tested on: MDA-MB-435
MOLT-4 leukemia = tested on: MOLT-4 leukemia
NCI-H226 lung = tested on: NCI-H226 lung
NCI-H23 lung = tested on: NCI-H23 lung
NCI-H460 lung = tested on: NCI-H460 lung
NCI-H522 lung = tested on: NCI-H522 lung
NCI/ADR-RES ovarian = tested on: NCI/ADR-RES ovarian
OVCAR-3 ovarian = tested on: OVCAR-3 ovarian
OVCAR-4 ovarian = tested on: OVCAR-4 ovarian
OVCAR-5 ovarian = tested on: OVCAR-5 ovarian
OVCAR-8 ovarian = tested on: OVCAR-8 ovarian
PC-3 prostate = tested on: PC-3 prostate
RPMI-8226 leukemia = tested on: RPMI-8226 leukemia
RXF 393 renal = tested on: RXF 393 renal
SF-268 CNS = tested on: SF-268 CNS
SF-295 CNS = tested on: SF-295 CNS
SF-539 CNS = tested on: SF-539 CNS
SK-MEL-2 melanoma = tested on: SK-MEL-2 melanoma
SK-MEL-28 melanoma = tested on: SK-MEL-28 melanoma
SK-MEL-5 melanoma = tested on: SK-MEL-5 melanoma
SK-OV-3 ovarian = tested on: SK-OV-3 ovarian
SN12C renal = tested on: SN12C renal
SNB-19 CNS = tested on: SNB-19 CNS
SNB-75 CNS = tested on: SNB-75 CNS
SR leukemia = tested on: SR leukemia
SW-620 colon = tested on: SW-620 colon
T-47D breast = tested on: T-47D breast
TK-10 renal = tested on: TK-10 renal
U251 CNS = tested on: U251 CNS
UACC-257 melanoma = tested on: UACC-257 melanoma
UACC-62 melanoma = tested on: UACC-62 melanoma
UO-31 renal = tested on: UO-31 renal

SMILES: CC[C@@H](C(=O)O)C1CC[C@H](C)C([C@@H](C)[C@H](O)[C@H](C)C(=O)[C@H](CC)C2O[C@]3(C=C[C@@H](O)[C@]4(CC[C@@](C)(C5CC[C@](O)(CC)[C@H](C)O5)O4)O3)[C@H](C)C[C@@H]2C)O1 (stereo partly specified)
- GI50 (786-0 renal): 656 nM
- TGI (786-0 renal): 7920 nM
- GI50 (A498 renal): 45.8 nM
- TGI (A498 renal): 799 nM
- GI50 (A549 NSCLC): 282 nM
- TGI (A549 NSCLC): 14100 nM
- GI50 (ACHN renal): 504 nM
- TGI (ACHN renal): 27500 nM
- GI50 (BT-549 breast): 184 nM
- TGI (BT-549 breast): 3190 nM
- GI50 (CAKI-1 renal): 190 nM
- TGI (CAKI-1 renal): 18200 nM
- GI50 (CCRF-CEM leukemia): 619 nM
- TGI (CCRF-CEM leukemia): 20500 nM
- GI50 (COLO 205 colon): 224 nM
- TGI (COLO 205 colon): 5200 nM
- GI50 (DU-145 prostate): 805 nM
- TGI (DU-145 prostate): 32400 nM
- GI50 (EKVX NSCLC): 523 nM
- TGI (EKVX NSCLC): 22500 nM
- GI50 (HCC-2998 colon): 130 nM
- TGI (HCC-2998 colon): 7520 nM
- GI50 (HCT-116 colon): 369 nM
- TGI (HCT-116 colon): 16600 nM
- GI50 (HCT-15 colon): 446 nM
- TGI (HCT-15 colon): 21800 nM
- GI50 (HL-60(TB) leukemia): 40.6 nM
- TGI (HL-60(TB) leukemia): 347 nM
- GI50 (HOP-62 NSCLC): 1110 nM
- TGI (HOP-62 NSCLC): 21700 nM
- GI50 (HOP-92 NSCLC): 317 nM
- TGI (HOP-92 NSCLC): 4930 nM
- GI50 (HS 578T breast): 76.7 nM
- TGI (HS 578T breast): 12400 nM
- GI50 (HT29 colon): 293 nM
- TGI (HT29 colon): 25700 nM
- GI50 (IGROV1 ovarian): 2280 nM
- TGI (IGROV1 ovarian): 64800 nM
- GI50 (K-562 leukemia): 306 nM
- TGI (K-562 leukemia): 15600 nM
- GI50 (KM12 colon): 893 nM
- TGI (KM12 colon): 11900 nM
- GI50 (LOX IMVI melanoma): 641 nM
- TGI (LOX IMVI melanoma): 13600 nM
- GI50 (M14 melanoma): 1290 nM
- TGI (M14 melanoma): 2820 nM
- GI50 (MALME-3M melanoma): 226 nM
- TGI (MALME-3M melanoma): 1370 nM
- GI50 (MCF7 breast): 110 nM
- TGI (MCF7 breast): 13900 nM
- GI50 (MDA-MB-231 breast): 863 nM
- TGI (MDA-MB-231 breast): 5510 nM
- GI50 (MDA-MB-435): 1040 nM
- TGI (MDA-MB-435): 2770 nM
- GI50 (MOLT-4 leukemia): 1470 nM
- TGI (MOLT-4 leukemia): 5920 nM
- GI50 (NCI-H226 lung): 1190 nM
- TGI (NCI-H226 lung): 10800 nM
- GI50 (NCI-H23 lung): 186 nM
- TGI (NCI-H23 lung): 5760 nM
- GI50 (NCI-H460 lung): 383 nM
- TGI (NCI-H460 lung): 10500 nM
- GI50 (NCI-H522 lung): 78.5 nM
- TGI (NCI-H522 lung): 1780 nM
- GI50 (NCI/ADR-RES ovarian): 443 nM
- TGI (NCI/ADR-RES ovarian): 34700 nM
- GI50 (OVCAR-3 ovarian): 43.4 nM
- TGI (OVCAR-3 ovarian): 16400 nM
- GI50 (OVCAR-4 ovarian): 657 nM
- TGI (OVCAR-4 ovarian): 33700 nM
- GI50 (OVCAR-5 ovarian): 2480 nM
- TGI (OVCAR-5 ovarian): 50800 nM
- GI50 (OVCAR-8 ovarian): 1210 nM
- TGI (OVCAR-8 ovarian): 37400 nM
- GI50 (PC-3 prostate): 65.7 nM
- TGI (PC-3 prostate): 45800 nM
- GI50 (RPMI-8226 leukemia): 153 nM
- TGI (RPMI-8226 leukemia): 3480 nM
- GI50 (RXF 393 renal): 289 nM
- TGI (RXF 393 renal): 3760 nM
- GI50 (SF-268 CNS): 1310 nM
- TGI (SF-268 CNS): 16000 nM
- GI50 (SF-295 CNS): 261 nM
- TGI (SF-295 CNS): 11100 nM
- GI50 (SF-539 CNS): 309 nM
- TGI (SF-539 CNS): 3900 nM
- GI50 (SK-MEL-2 melanoma): 981 nM
- TGI (SK-MEL-2 melanoma): 7530 nM
- GI50 (SK-MEL-28 melanoma): 549 nM
- TGI (SK-MEL-28 melanoma): 1930 nM
- GI50 (SK-MEL-5 melanoma): 180 nM
- TGI (SK-MEL-5 melanoma): 860 nM
- GI50 (SK-OV-3 ovarian): 3440 nM
- TGI (SK-OV-3 ovarian): 31800 nM
- GI50 (SN12C renal): 128 nM
- TGI (SN12C renal): 28700 nM
- GI50 (SNB-19 CNS): 323 nM
- TGI (SNB-19 CNS): 3650 nM
- GI50 (SNB-75 CNS): 774 nM
- TGI (SNB-75 CNS): 4180 nM
- GI50 (SR leukemia): 41.1 nM
- TGI (SR leukemia): 14000 nM
- GI50 (SW-620 colon): 1330 nM
- TGI (SW-620 colon): 8930 nM
- GI50 (T-47D breast): 371 nM
- TGI (T-47D breast): 16000 nM
- GI50 (TK-10 renal): 987 nM
- TGI (TK-10 renal): 39400 nM
- GI50 (U251 CNS): 115 nM
- TGI (U251 CNS): 10200 nM
- GI50 (UACC-257 melanoma): 293 nM
- TGI (UACC-257 melanoma): 5880 nM
- GI50 (UACC-62 melanoma): 767 nM
- TGI (UACC-62 melanoma): 2150 nM
- GI50 (UO-31 renal): 784 nM
- TGI (UO-31 renal): 15900 nM
